Several values for one entry are separate records, joined by “and”; a condition that tells them apart may be missing. Equal entries are not always repeated.
Tests used:
[1] = excess molar enthalpy (molar enthalpy of mixing); xn = mol fraction of the nth substance listed; conditions: 101 kPa, Liquid
[2] = Liquid; for mass density: 101.33 kPa

CC(=O)OCCOC(C)=O [ethylene diacetate] + O
[1], 323.15 K, Flow calorimetry
Conditions | excess molar enthalpy [kcal/mol]
x2 = 0.0844 | 0.15
x2 = 0.1574 | 0.24
x2 = 0.2211 | 0.299
x2 = 0.2771 | 0.331
x2 = 0.3713 | 0.36
x2 = 0.4473 | 0.361
x2 = 0.5624 | 0.304
x2 = 0.6455 | 0.245
x2 = 0.7342 | 0.182
x2 = 0.8138 | 0.125
x2 = 0.8793 | 0.0798
x2 = 0.9161 | 0.0535
x2 = 0.9444 | 0.0344
x2 = 0.9668 | 0.0189
x2 = 0.9808 | 0.00808

CC(=O)OCCOC(C)=O [ethylene diacetate]
Conditions | vapor or sublimation pressure
[2], 363.15 K | 2.744 kPa [middle of 4 runs]

CC(=O)OCCO [2-hydroxyethyl acetate] + OCCO
[1], 323.15 K, Flow calorimetry
Conditions | excess molar enthalpy [kcal/mol]
x1 = 0.0784 | 0.0435
x1 = 0.1656 | 0.0808
x1 = 0.2632 | 0.111
x1 = 0.3732 | 0.132
x1 = 0.4718 | 0.139
x1 = 0.5815 | 0.136
x1 = 0.7043 | 0.117
x1 = 0.8065 | 0.0894
x1 = 0.9188 | 0.043

O [water]
Conditions | vapor or sublimation pressure
[2], 363.15 K | 70.09 kPa and 69.93 kPa

OCCO [1,2-ethanediol]
Conditions | vapor or sublimation pressure
[2], 363.15 K | 1.202 kPa and 1.28 kPa and 1.38 kPa

CC(=O)OCCO [2-hydroxyethyl acetate] + CC(=O)OCCOC(C)=O
[1], 323.15 K, Flow calorimetry
Conditions | excess molar enthalpy [kcal/mol]
x1 = 0.103 | 0.0688
x1 = 0.231 | 0.13
x1 = 0.3777 | 0.163
x1 = 0.5367 | 0.167
x1 = 0.7024 | 0.142
x1 = 0.8299 | 0.098
x1 = 0.9272 | 0.0495

CC(=O)OCCO [2-hydroxyethyl acetate] + CC(=O)O
[1], 323.15 K, Flow calorimetry
Conditions | excess molar enthalpy [kcal/mol]
x2 = 0.0798 | -0.0241
x2 = 0.1906 | -0.0502
x2 = 0.2919 | -0.0636
x2 = 0.414 | -0.0664
x2 = 0.5236 | -0.0576
x2 = 0.6224 | -0.0437
x2 = 0.7332 | -0.0223
x2 = 0.8318 | -0.00323
x2 = 0.9203 | 0.00684

CC(=O)OCCO [2-hydroxyethyl acetate] + O
[1], 323.15 K, Flow calorimetry
Conditions | excess molar enthalpy [kcal/mol]
x2 = 0.1179 | -0.192
x2 = 0.2578 | -0.176
x2 = 0.3978 | -0.117
x2 = 0.546 | -0.0727
x2 = 0.6907 | -0.0373
x2 = 0.825 | -0.0169
x2 = 0.9399 | -0.00478

CC(=O)OCCO [2-hydroxyethyl acetate]
[2]
Conditions | mass density [kg/m3] | vapor or sublimation pressure
283.16 K | 1118.6 | –
288.14 K | 1113.8 | –
293.14 K | 1108.9 | –
298.14 K | 1104.1 | –
303.14 K | 1099.2 | –
308.14 K | 1094.4 | –
313.14 K | 1089.5 | –
318.14 K | 1084.6 | –
323.14 K | 1079.7 | –
328.14 K | 1074.8 | –
333.14 K | 1069.9 | –
338.14 K | 1064.9 | –
343.14 K | 1059.9 | –
363.15 K | – | 2.228 kPa [middle of 4 runs]
374.42 K | – | 3.79 kPa
403.66 K | – | 13.81 kPa
417.65 K | – | 23.64 kPa
427.41 K | – | 33.46 kPa
434.9 K | – | 43.3 kPa
440.57 K | – | 53.13 kPa
444.25 K | – | 62.95 kPa
448.78 K | – | 72.79 kPa

CC(=O)O [acetic acid] + OCCO
excess molar enthalpy [kcal/mol], [1]
Conditions | 298.15 K | 323.15 K
x1 = 0.0489 | 0.00158 | –
x1 = 0.049 | – | 0.00485
x1 = 0.098 | 0.000992 | 0.007
x1 = 0.1472 | -0.000488 | 0.00631
x1 = 0.1964 | -0.0027 | –
x1 = 0.1965 | – | 0.00519
x1 = 0.2458 | -0.00595 | –
x1 = 0.2459 | – | 0.00304
x1 = 0.2953 | -0.00837 | –
x1 = 0.2954 | – | 0.00172
x1 = 0.3449 | -0.011 | –
x1 = 0.345 | – | -0.000206
x1 = 0.3946 | -0.0134 | –
x1 = 0.3947 | – | -0.00151
x1 = 0.4444 | -0.0147 | –
x1 = 0.4445 | – | -0.00229
x1 = 0.4944 | -0.0151 | –
x1 = 0.4945 | – | -0.00167
x1 = 0.5444 | -0.0136 | –
x1 = 0.5445 | – | -0.000263
x1 = 0.5946 | -0.0107 | –
x1 = 0.5947 | – | 0.00282
x1 = 0.6449 | -0.00621 | –
x1 = 0.645 | – | 0.00734
x1 = 0.6953 | 0.00032 | 0.0126
x1 = 0.7458 | 0.00667 | 0.0189
x1 = 0.7964 | 0.0138 | 0.0244
x1 = 0.8471 | 0.0196 | –
x1 = 0.8472 | – | 0.0289
x1 = 0.898 | 0.0224 | 0.0296
x1 = 0.9489 | 0.0184 | 0.0225

CC(=O)OCCOC(C)=O [ethylene diacetate] + OCCO
[1], 323.15 K, Flow calorimetry
Conditions | excess molar enthalpy [kcal/mol]
x1 = 0.0219 | 0.0483
x1 = 0.0451 | 0.0966
x1 = 0.0698 | 0.142
x1 = 0.096 | 0.19
x1 = 0.1241 | 0.232
x1 = 0.1541 | 0.268
x1 = 0.1862 | 0.302
x1 = 0.2208 | 0.332
x1 = 0.258 | 0.362
x1 = 0.2982 | 0.389
x1 = 0.3419 | 0.412
x1 = 0.3893 | 0.434
x1 = 0.4411 | 0.456
x1 = 0.4979 | 0.466
x1 = 0.5604 | 0.464
x1 = 0.6296 | 0.452
x1 = 0.7066 | 0.418
x1 = 0.7927 | 0.345
x1 = 0.8898 | 0.216

CC(=O)OCCOC(C)=O [ethylene diacetate] + CC(=O)O
[1], 323.15 K, Flow calorimetry
Conditions | excess molar enthalpy [kcal/mol]
x2 = 0.1086 | 0.0418
x2 = 0.2045 | 0.0657
x2 = 0.2899 | 0.0791
x2 = 0.3665 | 0.0863
x2 = 0.4354 | 0.0894
x2 = 0.4979 | 0.0894
x2 = 0.5547 | 0.0877
x2 = 0.6067 | 0.0834
x2 = 0.6544 | 0.0784
x2 = 0.6982 | 0.0736
x2 = 0.7388 | 0.0669
x2 = 0.7763 | 0.06
x2 = 0.8112 | 0.0526
x2 = 0.8437 | 0.0447
x2 = 0.8741 | 0.0375
x2 = 0.9025 | 0.0292
x2 = 0.9291 | 0.0218
x2 = 0.9542 | 0.014
x2 = 0.9778 | 0.00669

CC(=O)O [acetic acid]
Conditions | vapor or sublimation pressure
[2], 363.15 K | 39.68 kPa and 39.67 kPa and 39.66 kPa
